Test results from paper PMC9995496, “A screen for MeCP2-TBL1 interaction inhibitors using a luminescence-based assay” (Scientific Reports, 2023).
Where a name gives a salt, the structure may show the parent alone. Read-outs that look alike come from different tables or passages of the source. One block for each molecule: values may come before it. Square brackets hold non-standard residues; d marks the D form. Peptide text beside a SMILES is read from it. * marks the point of attachment. Nva = CCC[C@H](N)C(=O)O; Cbz = O=C(OCc1ccccc1)*

Tested on: PRKACA-PRKAR2A interaction (SmBiT-PRKACA / LgBiT-PRKAR2A), protein kinase A
Set-up: NanoLuc complementation counter-screen in cell extract, PRKACA with PRKAR2A, loss of luminescence, detects NanoLuc interference
Settings: counter-screen for NanoLuc interference, 0.5 h, 20 µM, inhibitor

Compound: CCCCCCCCCCCC1=C(O)C(=O)C=C(O)C1=O [UM0133662:02, Embelin]
Inh (PKA): 15.52%

Compound: O=C(O)CCc1nc(-c2ccccc2)c(-c2ccccc2)o1 [UM0056108:04, Oxaprozin]
Inh (PKA): 7.48%

Compound: CO[C@@]12[C@H](COC(N)=O)C3=C(C(=O)C(C)=C(N)C3=O)N1C[C@@H]1N[C@@H]12 [UM0133761:02, Mitomycin C]
Inh (PKA): 0.5965%

Compound: CCS(=O)(=O)Nc1ccc2c(c1)/C(=C(/Nc1ccc(CN3CCCCC3)cc1)c1ccccc1)C(=O)N2 [UM0141715:01, Hesperadin]
Inh (PKA): 53.45%

Compound: O=c1ccc2cc(O)c(O)cc2o1 [UM0132846:02, 6,7-Dihydroxycoumarin]
Inh (PKA): 4.392%

Compound: Cc1oncc1C(=O)Nc1ccc(C(F)(F)F)cc1 [UM0118141:03, Leflunomide]
Inh (PKA): 16.35%

Compound: CC(=O)Nc1cccc(-n2c(=O)n(C3CC3)c(=O)c3c(Nc4ccc(I)cc4F)n(C)c(=O)c(C)c32)c1 [UM0130977:03, Trametinib (GSK1120212)]
Inh (PKA): 2.214%

Compound: Cc1cc2c(C(C)C)c(O)c(O)c(C=O)c2c(O)c1-c1c(C)cc2c(C(C)C)c(O)c(O)c(C=O)c2c1O [UM0118855:03, Gossypol]
Inh (PKA): 56.08%

Compound: O=C(Oc1cc(S(=O)(=O)c2ccccc2)ccc1[N+](=O)[O-])c1ccc(Cl)cc1 [UM0041523:03, BTB06584]
Inh (PKA): 10.87%

Compound: CC(C)[C@]12O[C@H]1[C@@H]1O[C@]13[C@]1(O[C@H]1C[C@H]1C4=C(CC[C@@]13C)C(=O)OC4)[C@@H]2O [UM0141641:01, Triptolide]
Inh (PKA): 1.248%

Compound: c1nc2c(NC3CCCCC3)nc(Nc3ccc(N4CCOCC4)cc3)nc2[nH]1 [UM0141614:01, Reversine]
Inh (PKA): 32.72%

Compound: CN1CCC(COc2cnc(-c3cccc(Cn4nc(-c5cccc(C#N)c5)ccc4=O)c3)nc2)CC1 [UM0141548:01, EMD-1214063]
Inh (PKA): 7.378%

Compound: CCC[C@@H](C=O)NC(=O)[C@H](CC(C)C)NC(=O)[C@H](CC(C)C)NC(=O)OCc1ccccc1 [UM0141478:01, MG-115] (Cbz-Leu-Leu-[Nva]-aldehyde)
Inh (PKA): 4.161%

Compound: C[C@@H](O)[C@H](NC(=O)c1ccc(C#Cc2ccc(CN3CCOCC3)cc2)cc1)C(=O)NO [UM0141531:01, CHIR-090]
Inh (PKA): 2.568%

Compound: O=C(c1ccc(Cl)cc1Cl)n1nnc2ccccc21 [UM0128552:02, ITSA-1 (ITSA1)]
Inh (PKA): 13.93%

Compound: CCC(CC)[C@H](NC(C)=O)[C@@H]1[C@H](O)[C@@H](C(=O)O)C[C@H]1NC(=N)N [UM0141600:01, Peramivir]
Inh (PKA) (Inh (PKA)): 2.459%

Compound: Cc1onc(-c2ccccc2)c1-c1ccc(S(N)(=O)=O)cc1 [UM0121300:03, Valdecoxib]
Inh (PKA): 9.885%

Compound: Oc1cc(Cl)ccc1Oc1ccc(Cl)cc1Cl [UM0133255:02, Triclosan]
Inh (PKA): 50.68%

Compound: CO[C@@H](C(=O)N1Cc2[nH]nc(NC(=O)c3ccc(N4CCN(C)CC4)cc3)c2C1)c1ccccc1 [UM0141713:01, Danusertib (PHA-739358)]
Inh (PKA): 4.91%

Compound: CS(=O)(=O)Nc1ccc([N+](=O)[O-])cc1Oc1ccccc1 [UM0118531:03, Nimesulide]
Inh (PKA): 82.23%

Compound: COc1cc(/C=C/C(=O)CC(=O)/C=C/c2ccc(O)c(OC)c2)ccc1O [UM0141535:01, Curcumin]
Inh (PKA): 70.09%

Compound: O=S(=O)(c1ccccc1)N(CC(F)(F)F)c1ccc(C(O)(C(F)(F)F)C(F)(F)F)cc1 [UM0141452:01, T0901317]
Inh (PKA): 30.09%

Compound: O=c1[nH]c2ccccc2n1C1CCN(Cc2ccc(-c3[nH]c4cc5ncnc5cc4nc3-c3ccccc3)cc2)CC1 [UM0127809:02, AKT inhibitor VIII]
Inh (PKA): 16.69%

Compound: CCCC(CCC)C(=O)O [UM0141598:02, Valproic acid sodium salt (Sodium valproate)]
Inh (PKA) (Inh (PKA)): 0.874%

Compound: S=C(S)N1CCCC1 [UM0120164:03, Pyrrolidinedithiocarbamate ammonium]
Inh (PKA): 13.75%

Compound: C=CC(=O)Nc1cc(-n2c(=O)ccc3cnc4ccc(-c5ccc(NS(C)(=O)=O)cc5)cc4c32)ccc1C [UM0141528:01, BMX-IN-1]
Inh (PKA): 6.521%

Compound: CC(=O)Oc1cc2c(s1)CCN(C(C(=O)C1CC1)c1ccccc1F)C2 (centres unmarked) [UM0141405:01, Prasugrel]
Inh (PKA) (Inh (PKA)): 8.306%

Compound: NC1(c2ccc(-c3nc4ccn5c(=O)[nH]nc5c4cc3-c3ccccc3)cc2)CCC1 [UM0130983:02, MK-2206 dihydrochloride]
Inh (PKA): 6.14%

Compound: CCc1ccc(CCOc2ccc(CC3SC(=O)NC3=O)cc2)nc1 (centres unmarked) [UM0141783:01, Pioglitazone HCl]
Inh (PKA): 13.53%

Compound: OCc1ccc(-c2ccc(-c3ccc(CO)s3)o2)s1 [UM0141761:01, RITA (NSC 652287)]
Inh (PKA): 10.18%

More lines, now with the values ahead:

Inh (PKA): 15.15%
Compound: Cc1nn(-c2ccccc2)c(C)c1/C=N/N1CCN(Cc2ccccc2)CC1 [UM0142111:01, SANT-1]

Inh (PKA) (Inh (PKA)): 0.7131%
Compound: CCC(CC)[C@H](NC(C)=O)[C@@H]1[C@H](O)[C@@H](C(=O)O)C[C@H]1NC(=N)N [UM0142420:01, Peramivir Trihydrate]

Inh (PKA): 4.605%
Compound: CNC(=O)c1c(C)oc2cc(Oc3ncnc4cc(OC)c(OC)cc34)ccc12 [UM0142676:01, Fruquintinib(HMPL-013)]

Inh (PKA): 13.32%
Compound: CNc1ncc2cc(-c3cc(NC(=O)NCCC(C)(C)C)c(F)cc3C)c(C)nc2n1 [UM0142127:01, LY3009120]

Inh (PKA): 1.128%
Compound: CC(C)(C)NCC(O)c1cc(O)cc(O)c1 (centres unmarked) [UM0142204:01, Terbutaline Sulfate]

Inh (PKA): 19.45%
Compound: O=S(=O)(NCCSSCCNS(=O)(=O)c1cc(Cl)ccc1Cl)c1cc(Cl)ccc1Cl [UM0141849:01, KC7F2]

Inh (PKA): 0.8236%
Compound: CC[C@H](C)C(=O)O[C@H]1C[C@H](O)C=C2C=C[C@H](C)[C@H](CC[C@@H](O)C[C@@H](O)CC(=O)O)[C@H]21 [UM0141813:01, Pravastatin sodium]

Inh (PKA): 15.97%
Compound: C[C@]1(O)C[C@@H](c2nc(-c3ccc4ccc(-c5ccccc5)nc4c3)c3c(N)nccn32)C1 [UM0141998:01, Linsitinib]

Inh (PKA): 3.519%
Compound: C=CCNC(N)=S [UM0142388:01, Allylthiourea]

Inh (PKA): 85.65%
Compound: CCc1c(-c2ccccc2)c(-c2ccccc2)nn1-c1ccccc1-c1cccc(OCC(=O)O)c1 [UM0142801:01, BMS 309403]

Inh (PKA): 63.96%
Compound: Cc1ccc(C(=O)c2cc(O)c(O)c([N+](=O)[O-])c2)cc1 [UM0141823:01, Tolcapone]

Inh (PKA): 0.006466%
Compound: Cc1c(O)c(=O)ccn1C [UM0142352:01, Deferiprone]

Inh (PKA): 5.399%
Compound: CC(C)(CCCCCC(O)CCCCCC(C)(C)C(=O)O)C(=O)O [UM0142125:01, ETC-1002]

Inh (PKA) (Inh (PKA)): 2.043%
Compound: CCCC(CCC)C(=O)O [UM0142234:01, Divalproex Sodium]

Inh (PKA): 10.34%
Compound: Fc1ccc(C(c2ccc(F)cc2)N2CCN(C/C=C/c3ccccc3)CC2)cc1 [flunarizine]

Inh (PKA): 0.8933%
Compound: CCc1c2c(nc3ccc(OC(=O)N4CCC(N5CCCCC5)CC4)cc13)-c1cc3c(c(=O)n1C2)COC(=O)[C@]3(O)CC [UM0141872:01, Irinotecan]

Inh (PKA): 1.975%
Compound: CN(C)C(=N)NC(=N)N [UM0142397:01, Metformin HCl]

Inh (PKA): -0.519%
Compound: CN(C)CCCOc1ccc(-c2ccc3ncc4c(c3c2)n(C2CCOCC2)c(=O)n4C)cn1 [UM0142808:01, AZD0156]

Inh (PKA): 16.06%
Compound: CN(C(=O)c1cc2ccccc2cc1C(=O)C(c1cccc2ccccc12)P(=O)(O)O)C1CCN(C(=O)c2ccccc2)CC1 (centres unmarked) [UM0141932:01, Cathepsin G Inhibitor I]

Inh (PKA) (Inh (PKA)): 3.498%
Compound: COc1ccc2[nH]c([S@@+]([O-])Cc3ncc(C)c(OC)c3C)nc2c1 [UM0142444:01, Esomeprazole Magnesium]

Inh (PKA): 28.61%
Compound: CC(C(=O)O)c1ccc(-c2ccccc2)c(F)c1 (centres unmarked) [UM0142040:01, Flurbiprofen]

Inh (PKA): 33.15%
Compound: CC(C)(C)n1nc(-c2ccc(Cl)cc2)c2c(N)ncnc21 [UM0141956:01, PP 2 (AG 1879)]

Inh (PKA): 1.416%
Compound: C[C@@]1(F)[C@H](O)[C@@H](CO)O[C@H]1n1ccc(=O)[nH]c1=O [UM0141938:01, PSI-6206]

Inh (PKA): 6.975%
Compound: COc1cc([C@@H]2c3cc4c(cc3[C@@H](O[C@@H]3O[C@@H]5CO[C@@H](c6cccs6)O[C@H]5[C@H](O)[C@H]3O)[C@H]3COC(=O)[C@H]23)OCO4)cc(OC)c1O [UM0142075:01, Teniposide]

Inh (PKA): 2.146%
Compound: COc1ccc(C[C@@H]2c3cc(OC)c(OC)cc3CC[N@+]2(C)CCC(=O)OCCCCCOC(=O)CC[N@@+]2(C)CCc3cc(OC)c(OC)cc3[C@H]2Cc2ccc(OC)c(OC)c2)cc1OC [UM0142215:01, Cisatracurium Besylate]

Inh (PKA): 22.3%
Compound: COc1cc(-c2ncn(/C=C\C(=O)OC(C)C)n2)cc(C(F)(F)F)c1 [UM0142266:01, KPT-185]

Inh (PKA): 3.043%
Compound: Nc1ccccc1NC(=O)c1ccc(CNC(=O)OCc2cccnc2)cc1 [UM0141929:01, Entinostat (MS-275,SNDX-275)]

Inh (PKA) (Inh (PKA)): 11.32%
Compound: CC(=O)c1c(C)c2cnc(Nc3ccc(N4CCNCC4)cn3)nc2n(C2CCCC2)c1=O [UM0141983:01, PD 0332991 (Palbociclib) HCl]

Inh (PKA): 1.366%
Compound: COc1c(N2C[C@@H]3CCCN[C@@H]3C2)c(F)cc2c(=O)c(C(=O)O)cn(C3CC3)c12 [UM0141881:01, Moxifloxacin HCl]
